Reference: patent US5162221A (Forschungszentrum Juelich GmbH, priority 1989, dated 1992)

How the values were obtained:
[1] = target: fructose-1,6-bisphosphate aldolase (F-1,6-BP aldolase) from Staphylococcus carnosus, class I, purified (Staphylococcus carnosus, UniProt Q07159); details: read-out: Km for F-1-P; cleavage of F-1-P to DHAP and glyceraldehyde; 37° C., pH 7.5
Description: Purified aldolase (40 μg/ml) was used for characterizing the enzyme, and 120 μg/ml were used for molecular weight determination.

[2] = system: O=C(COP(=O)(O)O)[C@@H](O)[C@H](O)[C@H](O)COP(=O)(O)O; test: purified protein, by the assay type; details: other: cleavage of F-1,6-BP to DHAP and glyceraldehyde 3-phosphate, 37° C., pH 7.5

fructose-1,6-bisphosphate aldolase (F-1,6-BP aldolase) from Staphylococcus carnosus, class I, purified, sequence (Q07159 whole entry): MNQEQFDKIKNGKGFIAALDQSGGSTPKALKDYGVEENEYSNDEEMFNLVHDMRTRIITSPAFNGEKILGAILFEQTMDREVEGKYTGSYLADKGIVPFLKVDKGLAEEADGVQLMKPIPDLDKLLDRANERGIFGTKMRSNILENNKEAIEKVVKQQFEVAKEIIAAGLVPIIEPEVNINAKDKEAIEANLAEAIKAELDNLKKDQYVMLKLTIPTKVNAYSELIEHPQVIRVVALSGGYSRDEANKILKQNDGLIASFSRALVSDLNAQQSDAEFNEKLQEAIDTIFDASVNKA

Molecule: O=C(COP(=O)(O)O)[C@@H](O)[C@H](O)[C@H](O)CO [F-1-P]
- Km [1]: 18.8 mM

Molecule: fructose-1,6-bisphosphate aldolase (F-1,6-BP aldolase) from Staphylococcus carnosus, class I, purified (Staphylococcus carnosus subsp. carnosus TM300)
- Km [2]: 0.022 mM
